Measurements published in patent publication US12006350B2, “Triblock peptide amphiphiles, micelles and methods of use” (The Curators of the University of Missouri, priority 2017, dated 2024).
No end group written: not given here. *: point of attachment. Palmitoyl = CCCCCCCCCCCCCCCC(=O)*

Key:
macrophages (MØs) = assay: TNF-α secretion from LPS-activated MØs incubated with VIP materials; assay type: cell-based
Experimental: (§1) The anti-inflammatory effect of VIPAMs were explored by incubating MOs and DCs with LPS and different VIP materials at low (i.e. 1 μM) or high (20 μM) concentrations (FIG. 41A, FIG. 41B, and FIG. 41C).

dendritic cells (DCs) [1] = assay: TNF-α secretion from LPS-activated DCs incubated with VIP materials; assay type: cell-based; settings: low (1 μM) or high (20 μM) concentration
Experimental: as §1

dendritic cells (DCs) [2] = assay: CCL22 production from DCs treated with VIP formulations; assay type: cell-based; settings: 24 hours; for DC CCL22 production: immature and mature DCs; for CCL22 production from immature DCs: vs no stimulus
Experimental: Thus, CCL22 production from DCs treated with different VIP formulations was evaluated.

dendritic cells (DCs) [3] = assay: CD86 expression on DCs incubated with VIP materials; assay type: cell-based; settings: for CD86 expression on activated DCs: with LPS
Experimental: as §1

dendritic cells (DCs) [4] = settings: after 48 hours of incubation; previous results; cited from earlier work
[5] = Micelle morphology and diameter by negative stain TEM; assay type: physicochemical; settings: concentrations above CMC
Experimental: Micelle morphology was assessed by negative stain transmission electron microscopy (TEM). TEM grids (200 mesh) with standard thickness carbon support films were purchased from Electron Microscopy Sciences and glow discharged for 45 seconds (Pelco Easiglow) to impart a negative charge. Product solutions (5 μL) were added to freshly glow-discharged films and incubated for 5 minutes. Filter paper was used to wick away excess solution and 5 μL of nanotungsten (Nanoprobes, Inc.) was immediately added. After 5 minute of incubation, grids were blotted dried and stored for later use. Samples were imaged with a JEOL JEM-1400 TEM at 120 kV for shape assessment. Tilt series images were collected at 200 kV, spot size 4, gun lens of 5, and extraction voltage of 3950 sA at a nominal 23,000× magnification with an underfocus of 1 sm. Tilt increments were collected every 2 degrees with a tilt range of ±70°, starting at 0°, with the negative half of the tilt series collected using FEI Xplore3D. Frames were aligned using IMOD with the patch-tracking algorithm using the entire imaged area for frame alignment and reconstructed with the weighted back projection algorithm. Micellar diameters were measured using ImageJ software (NIH). Three different spots from each micelle were measured and the results from three separate micelles were averaged for each group.

[6] = Micelle/peptide secondary structure by circular dichroism; assay type: physicochemical; settings: CD analysis; compared with VIP and pVIPA
Experimental: Micelle secondary structure was investigated by circular dichroism using a circular dichroism spectrometer model 62DS (Aviv Biomedical, Inc., Lakewood, NJ). Micelle solutions (40 μM) were loaded into a 1 mm cuvette and measured a total of 10 times from 190 to 250 nm with an interval of 1 nm. The averaged data was curve fit using a linear combination of polylysine basis structures to calculate approximate α-helix, β-sheet, and random coil content.

[7] = Critical micelle concentration (CMC) by DPH fluorescence; assay type: physicochemical; settings: VIP amphiphiles
Experimental: Critical micelle concentration (CMC) was measured indirectly by 1,6-diphenyl-1,3,5-hexatriene (DPH) fluorescence. […] Peptide amphiphile solutions were serially diluted in 1 μM 1,6-diphenyl-1,3,5 hexatriene (DPH) containing 0.01% THF and allowed to equilibrate for 1 hour prior to fluorescence measurement (ex. 350 nm, em. 428 nm) by a BioTek Cytation 5 fluorospectrophotometer. The resulting data was fit with two trend lines and the fluorescence inflection point was interpreted as the CMC (Table 4 and FIG. 23, FIG. 24, FIG. 25, FIG. 26, FIG. 27, FIG. 28, FIG. 29, and FIG. 30).
VIPA design and physical characterization: Based on our recent research, two VIPA chemistries were produced. The first VIPA was synthesized by directly conjugating palmitic acid (Palm) to the N-terminus of VIP to form Palm-VIP, […] (SEQ ID NO: 3), (pVIPA—FIG. 39A). The second VIPA included a zwitterion-like peptide region between Palm and VIP yielding PalmK-(EK)4-VIP, […] (SEQ ID NO: 4) (pzVIPA—FIG. 39B). […] While the addition of the hydrophilic block may have been expected to maintain or decrease the CMC, peptide folding to orient the most hydrophilic section externally can induce bending in the PA that may prevent straightforward micellar packing. […] This increased length is likely due to the intermicellar electrostatic complexation we have previously described for similar triblock PAs. […]

[8] = Zeta potential measurement of the zwitterion-like peptide region alone; assay type: physicochemical
From the text: The alternating charge groups of (KE)4 at neutral pH can create local dipole moments that allow for intermicellar complexation yielding the observed twining behavior. At low pH and high pH utilized, not all of the glutamic acids or lysines will be protonated or deprotonated, respectively, but the local change in (KE)4 block charge is significant enough to repulse one another yielding individual thread-like micelles.

[9] = cited from earlier work
[10] = low (1 μM) or high (20 μM) concentration

Row | Molecule | TNF-α secretion from activated MØs (macrophages (MØs); [10]) | TNF-α secretion from activated DCs (dendritic cells (DCs) [1]) | DC CCL22 production (dendritic cells (DCs) [2]) | CD86 expression on activated DCs (dendritic cells (DCs) [3]; [10]) | micelle shape [5] | CCL22 production from immature DCs (dendritic cells (DCs) [2]; high concentration) | CD86 expression on activated DCs (dendritic cells (DCs) [3]; high concentration (20 μM)) | other results
1 | Vasoactive intestinal peptide (HSDAVFTDNYTRLRKQMAVKKYLNSILN) [VIP, reference compound] | modestly reduce | modestly reduce | unable to induce | modestly reduce |  |  |  | CCL22 production (dendritic cells (DCs) [4]): induces significant CCL22 production
2 | CCCCCCCCCCCCCCCC(=O)O [Palm, palmitic acid, reference compound] | no TNF-α nor CD86 regulation | no TNF-α nor CD86 regulation | no impact on CCL22 induction | no TNF-α nor CD86 regulation |  |  |  | 
3 | PalmK-(EK)4-VIP (K(Palmitoyl)EKEKEKEKHSDAVFTDNYTRLRKQMAVKKYLNSILN-NH2; not fully specified) [pzVIPA] |  | maintained VIP-based TNF-α secretion |  |  | braided micelles | induced greater CCL22 production | significantly limited | TNF-α secretion from activated MØs (macrophages (MØs); effect only at high concentration (20 μM)): nearly completely abrogated; CD86 cell surface expression on immature DCs (dendritic cells (DCs) [3]; no LPS): no increase; α-helical conformation [6]: more abundant; CMC [7]: 9.3 µM
4 | Palm-VIP [pVIPA] | unable to enhance the TNF-α suppressive effects of VIP | completely nullified VIP effects |  |  | cylindrical micelles | induced greater CCL22 production | enhanced | CCL22 production from mature DCs (dendritic cells (DCs) [2]; high concentration, vs LPS-stimulated mature DC control): enhanced CCL22 production; CD86 expression in immature DCs (dendritic cells (DCs) [3]; high concentration, no LPS): significantly increased
5 | -Lys-Glu-Lys-Glu-Lys-Glu-Lys-Glu- (KEKEKEKE) [(KE)4] |  |  |  |  |  |  |  | Zeta Potential ([8]; pH 2): 31.4 ± 2.9 mV; Zeta Potential ([8]; pH 7): −7.8 ± 1.2 mV; Zeta Potential ([8]; pH 11): −18.1 ± 4.7 mV
6 | N[C@@H](CCC(=O)O)C(=O)O [glutamic acid] |  |  |  |  |  |  |  | pKa [9]: 4.07
